Experimental data published in PubChem BioAssay (NCI).
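Briefly, cells in 96-well plates were exposed to five compound concentrations for 48 h, and endpoints were estimated by linear interpolation. Definition used: TGI = concentration required for complete inhibition of growth.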

What was measured:
Test in all cases: DTP human tumour cell line panel, 48 h
SK-MEL-2 melanoma = test system: SK-MEL-2 melanoma
LOX IMVI melanoma = test system: LOX IMVI melanoma
OVCAR-4 ovarian = test system: OVCAR-4 ovarian
OVCAR-5 ovarian = test system: OVCAR-5 ovarian
HCC-2998 colon = test system: HCC-2998 colon
SNB-19 CNS = test system: SNB-19 CNS
NCI-H460 lung = test system: NCI-H460 lung
K-562 leukemia = test system: K-562 leukemia
CAKI-1 renal = test system: CAKI-1 renal
UACC-62 melanoma = test system: UACC-62 melanoma
SK-OV-3 ovarian = test system: SK-OV-3 ovarian
SR leukemia = test system: SR leukemia
HCT-116 colon = test system: HCT-116 colon
DLD-1 colon = test system: DLD-1 colon
U251 CNS = test system: U251 CNS
HOP-62 NSCLC = test system: HOP-62 NSCLC
SNB-75 CNS = test system: SNB-75 CNS
A549 NSCLC = test system: A549 NSCLC
COLO 205 colon = test system: COLO 205 colon
KM20L2 colon = test system: KM20L2 colon
RXF 393 renal = test system: RXF 393 renal
IGROV1 ovarian = test system: IGROV1 ovarian
MALME-3M melanoma = test system: MALME-3M melanoma
DMS 273 small cell lung = test system: DMS 273 small cell lung
RPMI-8226 leukemia = test system: RPMI-8226 leukemia
MOLT-4 leukemia = test system: MOLT-4 leukemia
SW-620 colon = test system: SW-620 colon
UO-31 renal = test system: UO-31 renal
OVCAR-8 ovarian = test system: OVCAR-8 ovarian
EKVX NSCLC = test system: EKVX NSCLC
M14 melanoma = test system: M14 melanoma
TK-10 renal = test system: TK-10 renal
KM12 colon = test system: KM12 colon
LXFL 529 NSCLC = test system: LXFL 529 NSCLC
M19-MEL melanoma = test system: M19-MEL melanoma
DMS 114 small cell lung = test system: DMS 114 small cell lung
SF-539 CNS = test system: SF-539 CNS
ACHN renal = test system: ACHN renal
HT29 colon = test system: HT29 colon
SF-268 CNS = test system: SF-268 CNS
HCT-15 colon = test system: HCT-15 colon
NCI-H522 lung = test system: NCI-H522 lung
HL-60(TB) leukemia = test system: HL-60(TB) leukemia
NCI-H226 lung = test system: NCI-H226 lung
SN12C renal = test system: SN12C renal
OVCAR-3 ovarian = test system: OVCAR-3 ovarian
UACC-257 melanoma = test system: UACC-257 melanoma
SK-MEL-28 melanoma = test system: SK-MEL-28 melanoma
NCI-H23 lung = test system: NCI-H23 lung
CCRF-CEM leukemia = test system: CCRF-CEM leukemia
786-0 renal = test system: 786-0 renal
SF-295 CNS = test system: SF-295 CNS
A498 renal = test system: A498 renal
SNB-78 CNS = test system: SNB-78 CNS
HOP-92 NSCLC = test system: HOP-92 NSCLC
SK-MEL-5 melanoma = test system: SK-MEL-5 melanoma

Measured: TGI

CC1(C)CC2(S(=O)(=O)c3ccccc3)ON1CC2S(=O)(=O)c1ccccc1 (stereo not drawn)
89.9 µM: CCRF-CEM leukemia
78.5 µM: HL-60(TB) leukemia
not listed: A498 renal | SNB-78 CNS | HOP-92 NSCLC | SK-MEL-5 melanoma
> 100 µM: all other assays above

CN(C)c1ccc(/C=C(/C(=O)O)c2csc(-c3nc(/C(=C\c4ccc(N(C)C)cc4)C(=O)O)cs3)n2)cc1
not listed: OVCAR-4 ovarian | SNB-19 CNS | SR leukemia | DMS 273 small cell lung | NCI-H522 lung
> 100 µM: all other assays above
